The test system of data set [1] is H1299 cells. Nature of the data set: MTT cell viability assay, 72 h, without RT. The class given is cell-based, human. As for the experimental part: The viability of the H1299 cells after different treatments was measured by (4,5-dimethythiazon-2-yl)-2,5-diphenyl tetrazolium bromide (MTT) assay using an Infinite M200 microplate reader (BioTek's Synergy™ Mx, USA). Around 3×10^3 cells per well were seeded into a 96-well plate and cultured overnight until the cells fully adhered to the bottom of the plate. The cells were treated with different treatment groups, including free drugs (DM1 and DM1-NO), and drug loaded nanoparticles (DM1-NPs and DM1-NO-NPs) for 72 h. […] After that MTT reagent (in 20 μL PBS, 5 mg/mL) was added to each well. The cells were further incubated for 4 h at 37° C. The medium in each well was then removed and replaced by 100 μL DMSO. The plate was gently shake for 5 min (instrument setup) to dissolve the formazan crystals, and the absorbance at 570 nm was recorded by a microplate reader. Each experiment condition was run three times and the data were shown as the mean value plus a standard deviation (±SD).
A general note: Tetrazolium assays rely on reduction of a dye to a coloured formazan, in cell work by metabolically active cells.

Data set [2] has as its system H1299 cells. Nature of the data set: MTT cell viability assay, 72 h, in the presence of RT. The class given is cell-based, human. As to conditions: with RT. As for the experimental part: FIGS. 7A-7E are plots showing the results of a cell cycle analysis, based on PI staining and assessed by flow cytometry. H1299 cells were incubated with PBS (7A), DM1 (7B), DM1-NO (7C), DM1-NPs (7D), or DM1-NO-NPs (20 nM, DM1 concentration) (7E) before analysis. […] FIG. 7G is a bar graphs showing Percentage of tubulin inhibition. Tubulin polymer was collected by centrifugation (35000×g for 1 h at 30° C.) and the amount of tubulin protein sediment was quantified by measuring protein concentration. ***, P<0.001. FIG. 7H is a line graph showing cell viability, tested with H1299 cells using 72-h MTT in the presence of RT. DM1, DM1-NO, and DM1-NO-NPs were studied.
The viability of the H1299 cells after different treatments was measured by (4,5-dimethythiazon-2-yl)-2,5-diphenyl tetrazolium bromide (MTT) assay using an Infinite M200 microplate reader (BioTek's Synergy™ Mx, USA). Around 3×10^3 cells per well were seeded into a 96-well plate and cultured overnight until the cells fully adhered to the bottom of the plate. The cells were treated with different treatment groups, including free drugs (DM1 and DM1-NO), and drug loaded nanoparticles (DM1-NPs and DM1-NO-NPs) for 72 h. […] The plate was gently shake for 5 min (instrument setup) to dissolve the formazan crystals, and the absorbance at 570 nm was recorded by a microplate reader. […]

Data set [3] has as its system H1299 cells. As to the kind of experiment: Clonogenic assay with X-ray irradiation, linear-quadratic model. The class given is cell-based, human. As to conditions: 20 nM, 12 h, X-rays 0-10 Gy. On the procedure: Around 3×10^5 of H1299 cells were plated in a series of 25 mm petri dishes in 5 mL of complete RMPI-1640 medium, and the cells were incubated for 24 h at 37° C. Once the cells were completely adhered to the bottom of the plate, the media was replaced with fresh RPMI-1640 containing DM1 or DM1-NO with a final concentration of 20 nM. After another 12 h of incubation, the cell cultures were irradiated by X-rays (320 kV) of different doses Immediately following the X-ray irradiation, the cell monolayers were trypsinized using 0.05% Trypsin/EDTA (Gibco, Life Technologies, USA). Single cells were collected and plated onto a 25 mm petri dish in 5 mL complete media (FIG. 1K). Each dish was then incubated for 21 days to allow colonies to form. After that, the media was removed and 0.5% crystal violet in 70% methanol was used to fixed and stain the existing colonies. The plates were sufficiently and carefully rinsed, and were dried at room temperature. Once dried, the colonies were counted manually under a microscope. When observed under the microscope, colonies of […] were said to be surviving colonies. The survival rate of these colonies was normalized to the plating efficiency of the untreated control cells. The mean and standard deviation of surviving colonies in each treatment group was calculated.
The potential of DM1-NO as a radiosensitizer was assessed by clonogenic assays. Briefly, DM1 or DM1-NO was incubated with H1299 cells, the cells were irradiated with X-rays (0-10 Gy), and the resulting cells were seeded onto a petri dish (FIG. 1K). Colonies consisting more than 50 cells after 3 weeks were counted, and the data fit to a linear-quadratic model (Table 3).

The subject of data set [4] is H1299 cells. Nature of the data set: Cell cycle arrest, PI staining and flow cytometry. As to conditions: 20 nM, 24 h; PBS control 17.5%. The class given is cell-based, human. As for the experimental part:
H1299 cells were seeded onto 6-well plates at a density of 2×10^5 cells per well and cultured overnight. The cells were then incubated with 20 nM of free drugs (DM1 and DM1-NO) or drug loaded nanoparticles (DM1-NPs and DM1-NO-NPs) for 24 h, and were then harvested and washed with ice-cold phosphate-buffered saline (PBS) and fixed with cold 70% (vol/vol) ethanol overnight at 4° C. The resulting cells were resuspended in PBS (1×) buffer containing a final concentration of 20 μg/mL RNase A and 20 μg/mL propidium iodide (eBioscience, Invitrogen, USA) for 15 min. The cell cycle profiles were determined using flow cytometry (HyperCyAn, Beckman USA) and analyzed using CellQuest software.
(In general: In flow cytometry, cells or beads pass a laser one at a time.)

Data set [5] in a line: In vivo toxicity study (hematology, blood biochemistry, liver tissue). As to conditions: 260.8 nmol/kg i.v., Day 10. Also on record: species or system balb/c mice. On the procedure:
Six-week old female albino BALB/c mice were purchased from Charles River Laboratories, USA. The animals were divided into control and experimental groups (n=3) and marked to permit individual identification. A similar dose (260.8 nmol/kg) of DM1-NO-NPs as used in therapeutic study was administered intravenously and the mice were examined for 10 days to observations for abnormal sign of toxicity such as change in behavioral, dizziness, respiratory distress or mortality were conducted until the end of the study. To further evaluate the hepatic function, alanine aminotransferase (ALT) and aspartate aminotransferase (AST) activities were measured and blood chemistry analysis was performed by using 20 μL blood serum sample form • each treated animal to assess the following: white blood cells (WBC), red blood cells (RBC), and platelets (PLT), plateletcrit, (PCT, mean platelet volume or platelet distribution width) and also corresponding sets of electrolytes (sodium, potassium, chloride, bicarbonate, sugar (glucose) calcium, inorganic phosphate, and magnesium, lipids (cholesterol), albumin, and total protein levels were also analyzed. Histological Analysis: […]

For another data set, the target named is NTSR1 (Homo sapiens, UniProt P30989). As to conditions: compared to wildtype NTS; cited from earlier work.
Sequence of NTSR1 (P30989 whole entry): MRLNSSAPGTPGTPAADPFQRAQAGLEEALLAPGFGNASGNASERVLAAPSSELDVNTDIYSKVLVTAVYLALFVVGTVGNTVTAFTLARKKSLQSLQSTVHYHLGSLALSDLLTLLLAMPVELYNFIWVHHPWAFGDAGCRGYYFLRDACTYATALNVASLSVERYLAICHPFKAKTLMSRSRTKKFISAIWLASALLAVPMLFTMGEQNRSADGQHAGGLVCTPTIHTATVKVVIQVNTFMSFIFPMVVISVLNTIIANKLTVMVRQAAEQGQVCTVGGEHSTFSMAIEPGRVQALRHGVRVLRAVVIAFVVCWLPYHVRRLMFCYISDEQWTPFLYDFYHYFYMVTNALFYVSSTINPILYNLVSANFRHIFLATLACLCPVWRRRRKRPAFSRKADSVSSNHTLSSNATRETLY
For data set [6] the following is noted: compared to wildtype NTS; cited from earlier work.

Non-standard residues stand in square brackets, D forms with d. Residues, ends and D or L forms follow the SMILES beside them. ξ: configuration not given here. ξGly(4-Pip(1-amidino)) = N=C(N)N1CCC(C(N)C(=O)O)CC1; ξGly(piperidin-4-yl) = NC(C(=O)O)C1CCNCC1; ξTle = CC(C)(C)C(N)C(=O)O; ξP = O=C(O)C1CCCN1; ξC = NC(CS)C(=O)O

Here are results for 2 compounds from patent US12570704B2, “Functionally modified maytansinoids and compositions and methods of use thereof” (University of Georgia Research Foundation, Inc., priority 2019, dated 2026).

Usually IC50 stands for the concentration that gives 50% inhibition.

Turning to `COc1cc2cc(c1Cl)N(C)C(=O)C[C@H](OC(=O)[C@H](C)N(C)C(=O)CCS)[C@]1(C)O[C@H]1[C@H](C)[C@@H]1C[C@@](O)(NC(=O)O1)[C@H](OC)/C=C/C=C(\C)C2` [DM1, Mertansine, reference compound], the 50% inhibitory concentration (IC50) with H1299 cells [1] amounted to 19.8 nM. Moreover, the IC50 with H1299 cells [2] was 17.4 nM. For the same compound, in the data set with H1299 cells [3], the “D10 (radiation dose at 10% fractional survival)” value was found to be 4.89 Gy, the “α (linear quadratic model best fit value)” value is 0.0729 and the “β (linear quadratic model best fit value)” value was 0.0033. Besides, the “portion of cells in the G2/M phase” value in the data set with H1299 cells [4] is reported as 85.3%. For the same compound, in data set [5], the “complete blood count: WBC, RBC, PLT, PCT levels” value is on record as “in the normal range”.

With `CC(C)C[C@H](NC(=O)C(NC(=O)[C@H](Cc1ccc(O)cc1)NC(=O)C1CCCN1C(=O)[C@H](CCCNC(=N)N)NC(=O)C(NC(=O)C1CCCN1C(=O)C(NC(=O)C(N)CS)C1CCNCC1)C1CCN(C(=N)N)CC1)C(C)(C)C)C(=O)O` (stereo partly drawn) [NTSmut] (H-[ξC][ξGly(piperidin-4-yl)][ξP][ξGly(4-Pip(1-amidino))]R[ξP]Y[ξTle]L-OH), the “avidity to NTSR1” value on NTSR1 was “comparable, nanomolar avidity”. Further, in data set [6], the biological stability entry is “much greater biological stability”.
